According to US4550186A, “Binuclear copper (II) carboxylates formed from amine-carboxyboranes” (Duke University, priority 1983, dated 1985):

Target: T1, transfer ribonucleic acid polymerase (Mus musculus, UniProt B2RXC6+P59470)
T1 sequence (B2RXC6 1-1390): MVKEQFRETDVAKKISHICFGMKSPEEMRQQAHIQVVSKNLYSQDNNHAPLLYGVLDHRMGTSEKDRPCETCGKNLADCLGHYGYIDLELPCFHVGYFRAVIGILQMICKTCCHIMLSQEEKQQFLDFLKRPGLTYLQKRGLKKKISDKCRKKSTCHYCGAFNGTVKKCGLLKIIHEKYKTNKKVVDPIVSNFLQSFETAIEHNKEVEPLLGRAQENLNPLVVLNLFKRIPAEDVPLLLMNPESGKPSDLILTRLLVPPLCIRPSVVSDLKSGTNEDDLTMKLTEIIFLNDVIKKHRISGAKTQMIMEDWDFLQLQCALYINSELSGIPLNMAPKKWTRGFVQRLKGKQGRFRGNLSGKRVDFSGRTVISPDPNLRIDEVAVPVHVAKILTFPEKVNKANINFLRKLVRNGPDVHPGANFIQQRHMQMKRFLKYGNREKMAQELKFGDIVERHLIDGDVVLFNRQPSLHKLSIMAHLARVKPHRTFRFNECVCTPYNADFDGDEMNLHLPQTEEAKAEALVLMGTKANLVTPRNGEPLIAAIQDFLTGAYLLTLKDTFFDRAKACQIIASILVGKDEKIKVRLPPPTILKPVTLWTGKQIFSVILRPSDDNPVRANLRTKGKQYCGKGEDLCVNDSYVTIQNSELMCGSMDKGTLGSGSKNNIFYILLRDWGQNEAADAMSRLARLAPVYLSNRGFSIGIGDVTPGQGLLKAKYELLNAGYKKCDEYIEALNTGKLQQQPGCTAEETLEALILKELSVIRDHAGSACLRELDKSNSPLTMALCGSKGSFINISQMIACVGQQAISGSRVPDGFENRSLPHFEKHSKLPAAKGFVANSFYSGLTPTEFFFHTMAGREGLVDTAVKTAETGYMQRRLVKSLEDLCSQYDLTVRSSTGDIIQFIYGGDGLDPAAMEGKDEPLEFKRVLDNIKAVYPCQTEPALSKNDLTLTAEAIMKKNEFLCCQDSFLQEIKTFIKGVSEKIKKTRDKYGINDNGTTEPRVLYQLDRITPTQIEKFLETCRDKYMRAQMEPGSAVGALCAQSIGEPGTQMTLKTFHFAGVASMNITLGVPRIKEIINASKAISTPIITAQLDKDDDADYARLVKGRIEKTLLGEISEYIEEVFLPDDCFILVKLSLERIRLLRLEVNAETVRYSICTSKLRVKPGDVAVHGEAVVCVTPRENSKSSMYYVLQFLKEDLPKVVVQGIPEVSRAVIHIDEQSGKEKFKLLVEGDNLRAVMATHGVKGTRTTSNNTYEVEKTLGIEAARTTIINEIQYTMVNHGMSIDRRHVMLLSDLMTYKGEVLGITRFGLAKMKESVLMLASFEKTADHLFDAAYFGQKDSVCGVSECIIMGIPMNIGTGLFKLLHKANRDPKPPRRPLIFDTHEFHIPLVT
T1 sequence (P59470 1-1133): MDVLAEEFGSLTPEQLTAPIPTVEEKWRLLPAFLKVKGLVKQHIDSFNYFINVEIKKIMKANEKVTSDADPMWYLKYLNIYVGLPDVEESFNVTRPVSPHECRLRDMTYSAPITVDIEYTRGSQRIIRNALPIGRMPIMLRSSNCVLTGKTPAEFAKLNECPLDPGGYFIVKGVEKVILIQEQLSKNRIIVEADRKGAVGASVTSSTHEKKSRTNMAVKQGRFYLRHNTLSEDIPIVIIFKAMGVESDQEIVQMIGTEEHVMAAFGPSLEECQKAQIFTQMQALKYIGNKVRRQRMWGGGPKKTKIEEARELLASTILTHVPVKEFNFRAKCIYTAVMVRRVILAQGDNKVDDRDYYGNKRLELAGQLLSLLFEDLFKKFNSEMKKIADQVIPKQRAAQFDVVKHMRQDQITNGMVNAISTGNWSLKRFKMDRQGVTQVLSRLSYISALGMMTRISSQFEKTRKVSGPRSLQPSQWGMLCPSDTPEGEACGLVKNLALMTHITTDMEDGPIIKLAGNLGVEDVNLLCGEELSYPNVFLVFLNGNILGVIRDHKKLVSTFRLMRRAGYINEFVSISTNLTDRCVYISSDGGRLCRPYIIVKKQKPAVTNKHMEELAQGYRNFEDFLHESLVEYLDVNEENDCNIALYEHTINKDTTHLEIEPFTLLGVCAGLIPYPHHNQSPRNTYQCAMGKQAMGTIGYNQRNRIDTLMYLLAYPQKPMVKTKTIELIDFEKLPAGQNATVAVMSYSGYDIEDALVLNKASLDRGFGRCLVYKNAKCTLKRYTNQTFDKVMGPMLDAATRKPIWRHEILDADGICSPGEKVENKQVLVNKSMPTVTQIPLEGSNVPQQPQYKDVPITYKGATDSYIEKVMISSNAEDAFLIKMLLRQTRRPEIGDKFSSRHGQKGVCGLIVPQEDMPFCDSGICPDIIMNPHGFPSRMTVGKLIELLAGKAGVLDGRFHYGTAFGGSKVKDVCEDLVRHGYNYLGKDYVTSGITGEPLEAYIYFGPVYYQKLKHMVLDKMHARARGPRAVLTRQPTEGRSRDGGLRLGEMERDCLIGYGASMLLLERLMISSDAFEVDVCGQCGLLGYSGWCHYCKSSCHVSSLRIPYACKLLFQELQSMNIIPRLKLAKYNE
Experiment: In vitro transfer ribonucleic acid polymerase activity
Assay type: biochemical
Settings: read-out: ID50, Transfer ribonucleic acid polymerase activity
Procedure: CF1 male mice (~30 g) were implanted with 2×10^6 Ehrlich ascites tumor cells, intraperitoneally on Day 0. Compound I was suspended by homogenation in 0.05% polysorbate.80-water and administered intraperitoneally at 10 and 20 mg/kg for 9 days to determine its effectiveness for inhibition of tumor growth. Mice were sacrificed on Day 10, and the ascites fluid was collected from the peritoneal cavity. The volume and ascrit (packed cell volume) were determined for each animal and the percent inhibition of tumor growth was calculated. For the metabolic studies, mice were treated on Days 8 and 9 with 10 mg/kg of Compound I, intraperitoneally. The animal was sacrificed on Day 10 and the ascites fluid harvested. The in vitro metabolic studies were performed at […] final concentration of Compound I.
In vitro and in vivo nuclear deoxyribonucleic acid polymerase activity was determined on isolated Ehrlich ascites cell nuclei. The incubation was that described by Sawada et al [Can. Res., 34, 3341 (1974)] except that [methyl-^3 H] deoxythymidine triphosphate (82.4 Ci/mmol) was used. The acid insoluble nucleic acid was collected on GF/F filters and counted. Nuclear ribonucleic acid polymerase activities were determined on enzymes isolated from nuclei. […] The acid insoluble ribonucleic acid was collected on nitrocellulose filters and counted.

{Cu[(CH3)3 N.BH2 CO2 ]2.(CH3)3 N.BH2 COOH} [Compound I]
IC50: 433 µM
